Converted amounts (≈) assume the structure as drawn.
Experiments:
Format in all cases: functional
[1] = test system: P388; assay: Cytotoxicity against mouse P388 cells; details: read-out: ED50 (the source's name)
[2] = test system: KB; assay: Cytotoxicity against human KB cells; details: read-out: ED50 (the source's name)
[3] = test system: P388; assay: In vivo antitumor activity against mouse P388 cells at 0.125 ug/kg/day, ip

| SMILES | EC50 [1] [µg/mL] | EC50 [2] [µg/mL] | T/C [3] [%] |
| --- | --- | --- | --- |
| COc1cc([C@H]2Oc3c(OC)cc4ccc(=O)oc4c3O[C@@H]2CO)ccc1O [CLEOMISCOSIN A] | 0.4 (≈ 1.04 µM) | > 10 | – |
| COC(=O)[C@]12OC[C@]34[C@H]([C@@H](O)[C@@H]1O)[C@@]1(C)CC(=O)C(O)=C(C)[C@@H]1C[C@H]3OC(=O)[C@H](OC(=O)C=C(C)C)[C@@H]24 [BRUSATOL] | – | – | 158 |

Reference: ChEMBL document CHEMBL1151617, “Antitumor agents, 65. Brusatol and cleomiscosin-A, antileukemic principles from Brucea javanica” (1984)
